Experimental data: US20170182104A1, “COMPOSITION CONTAINING MASTERWORT EXTRACT” (AMOREPACIFIC CORPORATION, priority 2014, published 2017)

Experiments:
Type in all cases: cell-based, human
[1] = system: endothelin 1 (EDN1); experiment: Endothelin 1 ELISA assay of culture medium of melanocytes; conditions: melanocytes (KaMC) medium, 2 nM substance P; absorbance/total protein, control group = 100%
Description: When the density of the melanocytes on the 6-well plate reached about 80% (˜80% confluence), they were incubated for a total of 5 days with 2 nM of stress-inducing substance P (Bachem Fechemikalien, Bubendorf, Switzerland) or the masterwort (Peucedanum ostruthium) extract of Example 1 of different concentrations (0, 0.1, 1, 2 and 5 ppm). The cells not treated with substance P or the masterwort (Peucedanum ostruthium) extract of Example 1 were used as a control group.
The culture medium of the cells treated with the extract in (2) of Test Example 1 were recovered and the amount of endothelin 1 (EDN1) comprised in the medium was measured at 450 nm using the human total endothelin ELISA kit (MyBioSource, USA).
Endothelin content (%)=(Absorbance/Total protein)×100 Equation 1

[2] = system: NK1R (neurokinin 1 receptor) gene; experiment: Gene expression assay by real-time PCR: NK1R gene in melanocytes; conditions: melanocytes (KaMC), 2 nM substance P, 5 days; relative to GAPDH, control group = 1
Description: (§1) Melanocytes (KaMC; KCTC 12015BP) deposited in the Korean Collection for Type Culture (KCTC) were cultured in M-254 medium (Gibco BRL, N.Y., USA) supplemented with Human Melanocyte Growth Supplement (HMGS; Gibco BRL, N.Y., USA) on a 6-well plate, while changing the medium every other day, in a 5% CO2 incubator at 37° C. until the cells occupied 95% of the plate area (95% confluence). […] The cells not treated with substance P or the masterwort (Peucedanum ostruthium) extract of Example 1 were used as a control group. After removing the medium form the melanocytes cultured on the 6-well plate, the cells were washed 2 times with cold phosphate-buffered saline (PBS) and the remaining water was completely removed. […] 1 μL of the RNA was quantified using Synergy II (Biotek, USA). […] After adding 10 μL of Taqman Gene Expression Master Mix (Life Technologies, USA) and 1 μL of Assays-on-DemandTM (Life Technologies, USA) of NK1 R (ACCESSION: NM_001058) and EDN1 (ACCESSION: NM_001168319) genes to 9 μL of the diluted cDNA, the expression of the genes was analyzed by relative quantification using 7500 Fast Real-Time PCR (Life Technologies, USA) with glyceraldehyde 3-phosphate dehydrogenase (GAPDH, ACCESSION: NM001256799) as a control gene. […]

[3] = system: EDN1 (endothelin 1) gene; experiment: Gene expression assay by real-time PCR: EDN1 gene in melanocytes; conditions: melanocytes (KaMC), 2 nM substance P, 5 days; relative to GAPDH, control group = 1
Description: as §1

expression of the NK1R gene [2]: 4.2
SMILES: CSCC[C@H](NC(=O)[C@H](CC(C)C)NC(=O)CNC(=O)[C@H](Cc1ccccc1)NC(=O)[C@H](Cc1ccccc1)NC(=O)[C@H](CCC(N)=O)NC(=O)[C@H](CCC(N)=O)NC(=O)[C@@H]1CCCN1C(=O)[C@H](CCCCN)NC(=O)[C@@H]1CCCN1C(=O)[C@@H](N)CCCN=C(N)N)C(N)=O [substance P]
content of endothelin 1 [1]: 124%
expression of the EDN1 gene [3]: 3.6
